From US20230272029A1, “CO-AGONISTS AT GLP-1 AND GIP RECEPTORS SUITABLE FOR ORAL DELIVERY” (Novo Nordisk A/S, priority 2020, published 2023)
Starred links: 1 amine or outer side, 2 acyl side, 3 side chain; linkers in the order of their positions; H or OH if unused. Non-standard residues stand in square brackets, D forms with d. Residues, ends and D or L forms follow the SMILES beside them. Groups on a side chain read outwards from the residue. *: point of attachment. C18 diacid = O=C(O)CCCCCCCCCCCCCCCCC(=O)*; γGlu = O=C(O)[C@H](CCC(=O)[*:2])N[*:1]; εLys = N[C@@H](CCCCN[*:1])C(=O)[*:2]; Aib = CC(C)(N)C(=O)O

Assay: Pharmacokinetic study in dogs after oral dosing of tablets with SNAC
Assay type: in vivo, Beagle dogs
Conditions: dog, in vivo, po
Description: The purpose of this example is to determine the half-life and plasma exposure in vivo of the compounds of the present invention after p.o. administration to beagle dogs, i.e. the terminal half-life and concentration of test substance that reaches circulation with time. This is done in a pharmacokinetic (PK) study, where these parameters of the compound in question are determined. By terminal half-life is generally meant the period of time it takes to halve a certain plasma concentration, measured after the initial distribution phase.
The amount of SNAC in the tablet composition was 100-300 mg, the amount of magnesium stearate in the tablet composition was 7.7 mg, and the target amount of each test substance in the tablet composition was 3-4 mg.
Male beagle dogs, 1-7 years of age and weighing 9-17 kg during the study period, were included in the study. The dogs were dosed in a fasting state. The dogs were group housed in pens (12 hours light: 12 hours dark), and fed individually and restrictedly once daily with Royal Canin Medium Adult dog food (Royal Canin Products, China Branch, or Brogaarden A/S, Denmark). The dogs were used for repeated PK studies with a suitable wash-out period between successive dosing. An appropriate acclimatization period was given prior to initiation of the first PK study. All handling, dosing, and blood sampling of the animals were performed by trained and skilled staff. Before the studies, the dogs were fasted overnight and from 0 to 4 hours after dosing. The dogs were restricted to water 1 hour before dosing until 4 hours after dosing, but otherwise had ad libitum access to water during the whole period.
The compositions were administered by a single oral dosing to the dogs in groups of 6-8 dogs. […] The mouth was then closed, and 10 mL of tap water was given by syringe or gavage to facilitate swallowing of the tablet.
For each blood sample time point, approximately 0.8 mL of whole blood was collected in a 1.5 mL EDTA-coated tube, which was gently turned to mix the sample with EDTA. Blood samples were collected in EDTA buffer (8 mM) and then centrifuged at 4° C. and 2000g for 10 minutes. Plasma was pipetted into Micronic tubes on dry ice, and kept at −20° C. or lower until analysis. Blood samples were taken as appropriate, for example from a venflon in the cephalic vein in the front leg for the first 2 hours and then with syringe from the jugular vein for the rest of the time points. The first few drops were allowed to drain from the venflon to avoid heparin saline from the venflon in the sample.
All blood samples were collected into test tubes containing EDTA for stabilisation and kept on ice until centrifugation. Plasma was separated from whole blood by centrifugation and the plasma was stored at −20° C. or lower until analysis.
The plasma was analysed for test substance using LC-MS (Liquid Chromatography-Mass Spectrometry) as known to the person skilled in the art. […] RP-HPLC separation was achieved using a linear gradient of 1:1 acetonitrile/methanol in 1% aqueous formic acid using either: a Phenomenex Onyx Monolithic C18 column (50×2.0 mm) and a flow rate of 0.8 mL/min at 30° C.; or an Agilent Poroshell 120 SB-C18 column (50×2.1 mm, 2.7 μm) at a flow rate of 0.4 mL/min at 60° C. The mass spectrometer was operated in either positive ionization SIM mode or positive ionization PRM mode.
For each individual animal, a plasma concentration-time profile was analysed by a non-compartmental model in Pharsight Phoenix WinNonLin ver. 6.4 software or other relevant software for PK analysis, and the resulting terminal half-life (t1/2), maximum plasma concentration per dose (Cmax/D), time for maximum plasma concentration (tmax), and area under the curve to infinity per dose (AUC/D) were determined. Summary statistics of pharmacokinetic results were presented as median (for tmax), harmonic mean ([…]), or arithmetic mean (Cmax, AUC).

Row | Compound | Cmax/Dose [kg/L]
1 | CC[C@H](C)[C@H](NC(=O)[C@H](Cc1ccccc1)NC(=O)[C@H](CCC(=O)O)NC(=O)[C@H](CCCNC(=N)N)NC(=O)[C@H](C)NC(=O)[C@H](C)NC(=O)[C@H](CCC(N)=O)NC(=O)[C@H](CCC(=O)O)NC(=O)[C@H](CCC(=O)O)NC(=O)[C@H](CC(C)C)NC(=O)[C@H](CC(C)C)NC(=O)[C@@H](NC(=O)[C@H](CO)NC(=O)[C@H](Cc1ccc(O)cc1)NC(=O)[C@H](CC(=O)O)NC(=O)[C@H](CO)NC(=O)[C@@H](NC(=O)[C@H](Cc1ccccc1)NC(=O)[C@@H](NC(=O)CNC(=O)[C@H](CCC(=O)O)NC(=O)C(C)(C)NC(=O)[C@@H](N)Cc1ccc(O)cc1)[C@@H](C)O)[C@@H](C)O)[C@@H](C)CC)C(=O)N[C@@H](CCC(=O)O)C(=O)N[C@@H](Cc1c[nH]c2ccccc12)C(=O)N[C@@H](CC(C)C)C(=O)N[C@@H](CC(C)C)C(=O)N[C@@H](C)C(=O)NCC(=O)NCC(=O)N1CCC[C@H]1C(=O)N[C@@H](CO)C(=O)N[C@@H](CCCCNC(=O)[C@@H](N)CCCCNC(=O)[C@@H](N)CCCCNC(=O)CC[C@H](NC(=O)CCCCCCCCCCCCCCCCC(=O)O)C(=O)O)C(=O)NCC(=O)N[C@@H](C)C(=O)N1CCC[C@H]1C(=O)N1CCC[C@H]1C(=O)N1CCC[C@H]1C(=O)N[C@@H](CO)C(=O)O [Compound No. 43] (H-Y[Aib]EGTFTSDYSILLEEQAAREFIEWLLAGGPSK([εLys-εLys-γGlu-C18 diacid])GAPPPS-OH) | 0.22
2 | CC[C@H](C)[C@H](NC(=O)[C@H](Cc1ccccc1)NC(=O)[C@H](CCC(=O)O)NC(=O)[C@H](CCCNC(=N)N)NC(=O)[C@H](C)NC(=O)[C@H](C)NC(=O)[C@H](CCC(N)=O)NC(=O)[C@H](CCCCNC(=O)[C@@H](N)CCCCNC(=O)[C@@H](N)CCCCNC(=O)CC[C@H](NC(=O)CCCCCCCCCCCCCCCCC(=O)O)C(=O)O)NC(=O)[C@H](CCC(=O)O)NC(=O)[C@H](CC(C)C)NC(=O)[C@H](Cc1ccc(O)cc1)NC(=O)[C@@H](NC(=O)[C@H](CO)NC(=O)[C@H](Cc1ccc(O)cc1)NC(=O)[C@H](CC(=O)O)NC(=O)[C@H](CO)NC(=O)[C@@H](NC(=O)[C@H](Cc1ccccc1)NC(=O)[C@@H](NC(=O)CNC(=O)[C@H](CCC(=O)O)NC(=O)C(C)(C)NC(=O)[C@@H](N)Cc1ccc(O)cc1)[C@@H](C)O)[C@@H](C)O)[C@@H](C)CC)C(=O)N[C@@H](CCC(=O)O)C(=O)N[C@@H](Cc1c[nH]c2ccccc12)C(=O)N[C@@H](CC(C)C)C(=O)N[C@@H](CC(C)C)C(=O)N[C@@H](C)C(=O)NCC(=O)NCC(=O)N1CCC[C@H]1C(=O)N[C@@H](CO)C(=O)N[C@@H](CO)C(=O)NCC(=O)N[C@@H](C)C(=O)N1CCC[C@H]1C(=O)N1CCC[C@H]1C(=O)N1CCC[C@H]1C(=O)N[C@@H](CO)C(=O)O [Compound No. 9] (H-Y[Aib]EGTFTSDYSIYLEK([εLys-εLys-γGlu-C18 diacid])QAAREFIEWLLAGGPSSGAPPPS-OH) | 0.24
